Results published in patent EP0011608A1, “Novel allenic amine and acid addition salts thereof, a process for their preparation, pharmaceutical preparations comprising them and the use of these compounds in the preparation of pharmaceutical compositions” (priority 1978, dated 1980).

Assays:
Assay type in all cases: in vivo
[1] = molecular target: T1, monoamine oxidase enzyme (Mus musculus, UniProt Q8BW75); assay: MAO inhibition in mouse brain slices after intraperitoneal injection: deamination of [3H]phenethylamine; conditions: for inhibition at 4 mg/kg: dose 4 mg/kg intraperitoneal; for inhibition at 32 mg/kg: dose 32 mg/kg intraperitoneal; for ED50: effective dose for 50 % inhibition; for inhibition at 29 mg/kg: dose 29 mg/kg intraperitoneal
T1 construct: from tissue; host or cells: mouse brain slices (hypothalamus, thalamus, midbrain), ex vivo after i.p. dosing
T1 sequence (Q8BW75 1-520): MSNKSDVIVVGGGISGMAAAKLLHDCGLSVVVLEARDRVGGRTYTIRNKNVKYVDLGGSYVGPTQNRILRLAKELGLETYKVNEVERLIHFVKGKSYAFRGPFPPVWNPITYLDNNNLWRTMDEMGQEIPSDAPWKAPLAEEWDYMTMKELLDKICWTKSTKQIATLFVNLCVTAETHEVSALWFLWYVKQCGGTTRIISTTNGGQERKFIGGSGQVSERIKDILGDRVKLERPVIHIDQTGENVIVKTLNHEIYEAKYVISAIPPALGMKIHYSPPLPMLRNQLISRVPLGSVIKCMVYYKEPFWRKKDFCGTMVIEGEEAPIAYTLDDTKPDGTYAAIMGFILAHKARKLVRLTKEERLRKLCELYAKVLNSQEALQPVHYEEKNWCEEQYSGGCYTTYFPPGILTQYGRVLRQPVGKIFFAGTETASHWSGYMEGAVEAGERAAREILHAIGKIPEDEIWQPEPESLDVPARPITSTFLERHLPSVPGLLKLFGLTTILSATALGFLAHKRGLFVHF
Description: (§1) It is not possible by experimental means to induce depressions in laboratory animals. In order to evaluate a possible antidepressive effect of new substances biochemical-pharmacological test methods must be resorted to. One such method, which seems to give good indication of the potential antidepressive effects of the test substances, is a test for monoamine oxidase enzyme inhibiting activity. The deamination of [^3H]phenethylamine, [^3H]tyramine, and [^14C]-5-hydroxytryptamine by brain slices was determined according to the following method.
(§2) Slices (100 mg) of the central part of the mouse brain including hypothalamus, thalamus, and midbrain were incubated for 5 min with 1 x 10^-7 M of the labeled substrate in 2.0 ml of Krebs-Henseleit's buffer, pH 7.4, containing […] of glucose, The slices were then homogenized in an all-glass homogenizer with 1.0 ml of 1 N HCl containing carrier amounts ([…]) of the nonlabeled amine and its deaminated acid product. An aliquot of 1.1 ml of a brain homogenate in 10 vol of 1 N HCl containing the substrate and product carriers was added to 0.5 ml of the incubation medium. The brain homogenate was added in order to facilitate the extraction of tyramine and 5-HT. The acid and neutral products were extracted into 6.0 ml of ethyl acetate by vigorous shaking for 10 s. After centrifugation, 4.0 ml of the organic phase was taken for determination of radicactivity, The remaining ethyl acetate was removed; the water phase was made alkaline with solid sodium carbonate and 1.0 ml of 0.5 M borate buffer, pH 10. The amine was then extracted into 6.0 ml of ethyl acetate and 4.0 ml of the organic phase was taken for the assay. The deamination of [^3H]tyramine and [^14C]-5-HT was determined simultaneously by utilizing the double-labeling technique. (S.B. Ross, A.L. Renyi, and S.-O. Ögren, Eur. J. Pharmacol., 17, 107 (1972)).
[…] The inhibition was expressed in percent and calculated on the total formation of acid and neutral products formed in the brain slices of animals treated with the test compounds or with saline.

[2] = tested on: monoamine oxidase enzyme; assay: MAO inhibition in mouse brain slices after intraperitoneal injection: deamination of [3H]tyramine; conditions: for ED50: deamination of tyramine, effective dose for 50 % inhibition, 1 h after adm.; for inhibition of the MAO activity against tyramine (in words): mouse, in vivo
Description: as §1, §2
(§3) Inhibition of the MAO activity in the brain slices was determined 1 h after the intraperitoneal injection of the test compound. The inhibition was expressed in percent and calculated on the total formation of acid and neutral products formed in the brain slices of animals treated with the test compounds or with saline.

[3] = molecular target: T2, monoamine oxidase enzyme (Mus musculus, UniProt Q64133); assay: MAO inhibition in mouse brain slices after intraperitoneal injection: deamination of [14C]-5-hydroxytryptamine; conditions: for inhibition of the MAO activity against 5-hydroxytryptamine (in words): in vivo; for ED50: effective dose for 50 % inhibition
T2 construct: from tissue; host or cells: mouse brain slices (hypothalamus, thalamus, midbrain), ex vivo after i.p. dosing
T2 sequence (Q64133 1-526): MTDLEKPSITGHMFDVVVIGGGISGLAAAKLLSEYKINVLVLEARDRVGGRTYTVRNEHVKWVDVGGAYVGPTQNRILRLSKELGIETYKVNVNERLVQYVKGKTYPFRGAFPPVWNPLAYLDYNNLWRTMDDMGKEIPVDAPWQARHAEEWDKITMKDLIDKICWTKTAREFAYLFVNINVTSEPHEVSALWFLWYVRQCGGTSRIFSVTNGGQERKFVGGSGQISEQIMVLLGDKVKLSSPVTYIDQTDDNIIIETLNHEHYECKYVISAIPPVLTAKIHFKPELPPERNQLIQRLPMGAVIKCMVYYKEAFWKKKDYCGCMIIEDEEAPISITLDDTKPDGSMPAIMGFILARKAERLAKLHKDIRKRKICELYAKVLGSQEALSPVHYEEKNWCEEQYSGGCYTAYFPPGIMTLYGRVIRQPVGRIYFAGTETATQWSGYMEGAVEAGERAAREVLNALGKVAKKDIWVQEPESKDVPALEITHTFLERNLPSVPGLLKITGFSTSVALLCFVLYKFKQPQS
Description: as §1, §2, §3

[4] = mouse, ip, deamination of phenethylamine, 1 h after adm.
[5] = mouse, ip, deamination of phenethylamine, 24 h after adm.
[6] = mouse, ip, deamination of 5-hydroxytryptamine, 1 h after adm.
[7] = comparison of ACS 104 with ACS 64

Row | SMILES | inhibition at 4 mg/kg [1, 4] | inhibition at 32 mg/kg [1, 4] | inhibition at 32 mg/kg [1, 5] | ED50 [1, 4] | ED50 [2] | inhibition of the MAO activity against tyramine (in words) [2] | inhibition of the MAO activity against 5-hydroxytryptamine (in words) ([3]; mouse) | inhibition at 32 mg/kg ([3]; mouse, ip, deamination of 5-hydroxytryptamine, dose 32 mg/kg intraperitoneal, 1 h after adm.) | ED50 [3, 6] | potency relative to the prior art compound, inhibition of the MAO activity against phenethylamine ([1]; comparison of ED50-values of ACS 104 and ACS 64) | inhibition at 1 mg/kg ([1]; mouse, ip, deamination of phenethylamine, dose 1 mg/kg intraperitoneal, 1 h after adm.) | inhibition at 29 mg/kg [1, 4] | inhibition at 29 mg/kg [1, 5] | potency relative to the prior art compound, MAO activity against tyramine [2, 7] | potency relative to the prior art compound, MAO activity against 5-hydroxytryptamine [3, 7] | inhibition at 29 mg/kg ([3]; mouse, ip, deamination of 5-hydroxytryptamine, dose 29 mg/kg intraperitoneal, 1 h after adm.)
1 | C=C=CCN(C)Cc1ccccc1.Cl [ACS 64, N-2,3-butadienyl--N-methylbenzylamine hydrochloride, reference compound] | 31 ± 7% | 86 ± 3% | 70 ± 1% | 50 µmol/kg | >150 µmol/kg | only weak inhibitors | only weak inhibitors | 16 ± 2% | > 150 µmol/kg | – | – | – | – | – | – | –
2 | C=C=C(CN)Cc1ccccc1.Cl [ACS 104, 2-benzyl-2,3-butadienamine hydrochloride] | 67 ± 2% | – | – | 16 µmol/kg | <150 µmol/kg | only weak inhibitors | only weak inhibitors | – | ~150 µmol/kg | about three times as potent as the prior art compound | 19 ± 3% | 92 ± 1% | 39 ± 2% | somewhat, more potent than the prior art compound | somewhat, more potent than the prior art compound | 48 ± 2%
